Test results published in patent US8580833B2, “Substituted imidazole derivatives and methods of use thereof” (TransTech Pharma, Inc., priority 2009, dated 2013).
Counter-ions that a name gives are not always drawn. Like-named read-outs stand apart in the source and are kept apart here.

What was measured:
[1] = Pharmacokinetic screening in rats, brain and plasma concentrations at 6 hour time point; assay type: in vivo; conditions: male, Sprague Dawley, rat, 5 mg/kg oral (PO), 6 hour time point; for concentration at 6 h: 2% Tween 80 in distilled water; for Kp at 6 h: brain/plasma ratio, read-out: B/P Ratio
Description: Pharmacokinetic screening in rats was performed on various compounds to measure brain and plasma concentrations at 6 hour time point.
The parameters for the pharmacokinetic protocol were as follows.
Amount of compound: 5 mg/kg
Species: Rat; Strain: Sprague Dawley; Sex: Male
Average body weight at dose: weight ranged from 271 to 423 grams
Average age at dose: age ranged from 9 to 14 weeks
Diet Status Overnight fasting
Number of Animals (n) for each time point: 2
Formulation: 2% Tween 80 in distilled water
Each formulation was administered once by oral gavage. The dose volume was 5 mL/kg for all animals. The actual volume administered to each animal was calculated and adjusted based on the most recent body weight.
Blood samples (approximately 300 μL whole blood) at (1, 2, and 4 h) was collected from each animal via tail vein except for terminal blood samples. Terminal blood (6 h) samples were collected via cardiac puncture. All samples were collected into tubes containing lithium heparin (Multivette 600 LH-Gel, Sarstedt, Newton, N.C., USA). Following collection, the tubes were placed in refrigerator (maximum 30 minutes) or until centrifugation under refrigeration (at 2 to 8° C.) at 1500 g for approximately 15 minutes. Each harvested plasma sample was then transferred into 1.2 mL polypropylene tubes, on the 96-Well Plate according to the 96-Well Plate plasma sample map and kept in freezer. Plasma samples were then analyzed for test substances.
Brain samples were collected immediately after the animals were euthanized at designated time points. Brain samples were rinsed with saline, blotted dry, and weighed. Brain samples were placed into individual containers and kept in freezer (−20° C.). Brain samples were then analyzed for test articles.
After analysis, all the plasma results are reported as ng/mL and brain sample results are reported as ng/g. In the table below, “ND” stands for not determined and “NA” stands for not applicable.

[2] = target: T1, RAGE (sRAGE) with β-amyloid as the RAGE ligand (Homo sapiens, UniProt Q15109); test: ELISA: inhibition of sRAGE binding to plate-bound β-amyloid; conditions: sRAGE 6 nM, hydrochloride salt form
T1 construct: generate soluble RAGE (sRAGE) comprised of the V and C domains
T1 sequence (Q15109 23-342 limits assumed): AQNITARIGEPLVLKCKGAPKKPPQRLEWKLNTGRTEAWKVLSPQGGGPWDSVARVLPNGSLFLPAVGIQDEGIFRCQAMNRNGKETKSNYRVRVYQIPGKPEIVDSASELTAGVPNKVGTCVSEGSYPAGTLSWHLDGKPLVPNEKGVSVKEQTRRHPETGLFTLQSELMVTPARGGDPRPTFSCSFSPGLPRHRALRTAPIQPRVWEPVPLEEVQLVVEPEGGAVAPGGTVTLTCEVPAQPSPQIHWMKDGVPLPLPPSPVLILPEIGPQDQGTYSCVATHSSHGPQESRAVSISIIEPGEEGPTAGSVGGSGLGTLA
Description: (§1) The following assay method may be used to identify compounds of Formula (I) or pharmaceutically acceptable salts thereof which are useful as inhibitors of binding of physiological RAGE ligands, such as S100b and β-amyloid, to RAGE.
(§2) S100b, β-amyloid, or CML (500 ng/100 μL/well) in 100 mM sodium bicarbonate/sodium carbonate buffer (pH 9.8) is loaded onto the wells of a NUNC Maxisorp flat bottom 96-well microtitre plate. The plate is incubated at 4° C. overnight. The wells are aspirated and treated with 50 mM imidazole buffer saline (pH 7.2) (with 5 mM CaCl2/MgCl2) containing 1% bovine serum albumin (BSA) (300 μL/well) for 1 h at RT. The wells are aspirated.
(§3) Test compounds are dissolved in nanopure water (concentration: 10-100 μM). DMSO may be used as co-solvent. 25 μL of test compound solution in 4% DMSO is added, along with 75 μL sRAGE (6 nM FAC) to each well and samples are incubated for 1 h at 37° C. The wells are washed several times with 155 mM NaCl pH 7.2 buffer saline and are soaked for several seconds between each wash.
(§4) Non-radioactive detection is performed by adding:
(§5) 10 μL Biotinylated goat F(ab′)2 Anti-mouse IgG. (8.0×10-4 mg/mL, FAC), 5 μL Alk-phos-Streptavidin (3×10-3 mg/mL FAC), 0.42 μL per 5 mL Monoclonal antibody for sRAGE (FAC 6.0×10-3 mg/mL) to 5 mL 50 mM imidazole buffer saline (pH 7.2) containing 0.2% bovine serum albumin and 5 mM CaCl2. The mixture is incubated for 30 minutes at RT.
(§6) 100 μL of complex is added to each well and incubation is allowed to proceed at rt for 1 h. Wells are washed several times with wash buffer and soaked several seconds between each wash. 100 μL 1 mg/mL (pNPP) in 1 M diethanolamine (pH adjusted to 9.8 with HCl) is added. Color is allowed to develop in the dark for 30 min to 1 h at rt. The reaction is quenched with 10 μL of stop solution (0.5-1.0 N NaOH in 50% ethanol) and the absorbance is measured spectrophotometrically with a microplate reader at 405 nm.
(§7) IC50 (μM) of in the ELISA assay represents the concentration of compound at which 50% signal has been inhibited.

[3] = target: T2, RAGE (sRAGE) with S100b as the RAGE ligand (Homo sapiens, UniProt Q15109); test: ELISA: inhibition of sRAGE binding to plate-bound S100b; conditions: sRAGE 6 nM, hydrochloride salt form
T2 construct: generate soluble RAGE (sRAGE) comprised of the V and C domains
T2 sequence (Q15109 23-342 limits assumed): as above
Description: as §1, §2, §3, §4, §5, §6, §7

[4] = brain, read-out: Brain concentration
[5] = plasma, read-out: Plasma concentration

SMILES | concentration at 6 h [1, 4] | concentration at 6 h [1, 5] | Kp at 6 h [1] | IC50 [2] | IC50 [3]
CCCCc1nc(-c2ccc(OC[C@H](O)CN(C)C)cc2)cn1-c1ccc(Oc2ccc(Cl)cc2)cc1 [Example 1, (R)-1-(4-{2-butyl-1-[4-(4-chloro-phenoxy)-phenyl]-1H-imidazol-4-yl}-phenoxy)-3-dimethylamino-propan-2-ol dihydrochloride] | 626 ng/g | 18 ng/mL | 34.1 | 850 nM | 660 nM
CCCCc1nc(-c2ccc(OC[C@H](O)CN(CC)CC)cc2)cn1-c1ccc(Oc2ccc(Cl)cc2)cc1 [Example 2, (R)-1-(4-{2-butyl-1-[4-(4-chloro-phenoxy)-phenyl]-1H-imidazol-4-yl}-phenoxy)-3-diethylamino-propan-2-ol dihydrochloride] | 718 ng/g | 24 ng/mL | 30.6 | 760 nM | 550 nM
CCCCc1nc(-c2ccc(OC[C@@H](O)CN(C)C)cc2)cn1-c1ccc(Oc2ccc(Cl)cc2)cc1 [Example 3, (S)-1-(4-{2-butyl-1-[4-(4-chloro-phenoxy)-phenyl]-1H-imidazol-4-yl}-phenoxy)-3-dimethylamino-propan-2-ol dihydrochloride] | 1120 ng/g | 48 ng/mL | 23.3 | 800 nM | 840 nM
CCCCc1nc(-c2ccc(OC[C@@H](O)CN(CC)CC)cc2)cn1-c1ccc(Oc2ccc(Cl)cc2)cc1 [Example 4, (S)-1-(4-{2-butyl-1-[4-(4-chloro-phenoxy)-phenyl]-1H-imidazol-4-yl}-phenoxy)-3-diethylamino-propan-2-ol dihydrochloride] | 610 ng/g | 74 ng/mL | 8.8 | 650 nM | 540 nM
CCOCc1nc(-c2ccc(OC[C@H](O)CN(C)C)cc2)cn1-c1ccc(Oc2ccc(Cl)cc2)cc1 [Example 5, (R)-1-(4-{1-[4-(4-chloro-phenoxy)-phenyl]-2-ethoxymethyl-1H-imidazol-4-yl}-phenoxy)-3-dimethylamino-propan-2-ol dihydrochloride] | 3320 ng/g | 200 ng/mL | 16.7 | 1020 nM | 710 nM
CCOCc1nc(-c2ccc(OC[C@@H](O)CN(C)C)cc2)cn1-c1ccc(Oc2ccc(Cl)cc2)cc1 [Example 6, (S)-1-(4-{1-[4-(4-chloro-phenoxy)-phenyl]-2-ethoxymethyl-1H-imidazol-4-yl}-phenoxy)-3-dimethylamino-propan-2-ol dihydrochloride] | 3900 ng/g | 155 ng/mL | 25.3 | 780 nM | 770 nM
CCOCc1nc(-c2ccc(OC[C@H](O)CN(CC)CC)cc2)cn1-c1ccc(Oc2ccc(Cl)cc2)cc1 [Example 7, (R)-1-(4-{1-[4-(4-chloro-phenoxy)-phenyl]-2-ethoxymethyl-1H-imidazol-4-yl}-phenoxy)-3-diethylamino-propan-2-ol dihydrochloride] | 1380 ng/g | 153 ng/mL | 9.1 | 1170 nM | 1050 nM
CCOCc1nc(-c2ccc(OC[C@@H](O)CN(CC)CC)cc2)cn1-c1ccc(Oc2ccc(Cl)cc2)cc1 [Example 8, (S)-1-(4-{1-[4-(4-chloro-phenoxy)-phenyl]-2-ethoxymethyl-1H-imidazol-4-yl}-phenoxy)-3-diethylamino-propan-2-ol dihydrochloride] | 2700 ng/g | 137 ng/mL | 19.6 | 1260 nM | 800 nM
CCCCc1nc(-c2ccc(OC[C@H](O)CNC)cc2)cn1-c1ccc(Oc2ccc(Cl)cc2)cc1 [Example 9, (R)-1-(4-{2-butyl-1-[4-(4-chloro-phenoxy)-phenyl]-1H-imidazol-4-yl}-phenoxy)-3-methylamino-propan-2-ol dihydrochloride] | 537 ng/g | 76 ng/mL | 7.2 | 1590 nM | 1130 nM
CCCCc1nc(-c2ccc(OC[C@@H](O)CNC)cc2)cn1-c1ccc(Oc2ccc(Cl)cc2)cc1 [Example 10, (S)-1-(4-{2-butyl-1-[4-(4-chloro-phenoxy)-phenyl]-1H-imidazol-4-yl}-phenoxy)-3-methylamino-propan-2-ol dihydrochloride] | 212 ng/g | 74 ng/mL | 2.9 | 1320 nM | 1140 nM
CCCCc1nc(-c2ccc(OC[C@H](O)CNCC)cc2)cn1-c1ccc(Oc2ccc(Cl)cc2)cc1 [Example 11, (R)-1-(4-{2-butyl-1-[4-(4-chloro-phenoxy)-phenyl]-1H-imidazol-4-yl}-phenoxy)-3-ethylamino-propan-2-ol dihydrochloride] | 343 ng/g | 72 ng/mL | 4.8 | 1020 nM | 810 nM
CCCCc1nc(-c2ccc(OC[C@@H](O)CNCC)cc2)cn1-c1ccc(Oc2ccc(Cl)cc2)cc1 [Example 12, (S)-1-(4-{2-butyl-1-[4-(4-chloro-phenoxy)-phenyl]-1H-imidazol-4-yl}-phenoxy)-3-ethylamino-propan-2-ol dihydrochloride] | 540 ng/g | 124 ng/mL | 4.5 | 1190 nM | 980 nM
CCOCc1nc(-c2ccc(OC[C@H](O)CNC)cc2)cn1-c1ccc(Oc2ccc(Cl)cc2)cc1 [Example 13, (R)-1-(4-{1-[4-(4-chloro-phenoxy)-phenyl]-2-ethoxymethyl-1H-imidazol-4-yl}-phenoxy)-3-methylamino-propan-2-ol dihydrochloride] | – | – | – | 2160 nM | 4610 nM
CCOCc1nc(-c2ccc(OC[C@@H](O)CNC)cc2)cn1-c1ccc(Oc2ccc(Cl)cc2)cc1 [Example 14, (S)-1-(4-{1-[4-(4-chloro-phenoxy)-phenyl]-2-ethoxymethyl-1H-imidazol-4-yl}-phenoxy)-3-methylamino-propan-2-ol dihydrochloride] | – | – | – | 2370 nM | 4560 nM
CCNC[C@@H](O)COc1ccc(-c2cn(-c3ccc(Oc4ccc(Cl)cc4)cc3)c(COCC)n2)cc1 [Example 15, (R)-1-(4-{1-[4-(4-chloro-phenoxy)-phenyl]-2-ethoxymethyl-1H-imidazol-4-yl}-phenoxy)-3-ethylamino-propan-2-ol dihydrochloride] | – | – | – | 2470 nM | 3140 nM
CCNC[C@H](O)COc1ccc(-c2cn(-c3ccc(Oc4ccc(Cl)cc4)cc3)c(COCC)n2)cc1 [Example 16, (S)-1-(4-{1-[4-(4-chloro-phenoxy)-phenyl]-2-ethoxymethyl-1H-imidazol-4-yl}-phenoxy)-3-ethylamino-propan-2-ol dihydrochloride] | – | – | – | 1550 nM | 3130 nM
